pIC50: −log10 of the molar value. Where a name gives a salt, the structure may show the parent alone.

The first assay relates to Escherichia coli ATCC 25922. The assay is described as follows: 50% growth inhibitory concentration (IC50) determination, Iso-Sensitest broth dilution. The conditions noted are these: Escherichia coli, ATCC25922, 16 h, strain Escherichia coli ATCC 25922; 10-point broth dilution, optical density at 600 nm over 16 h; read-out: Escherichia coli growth inhibition IC50. The class given is cell-based. Put shortly: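 10-point twofold Iso-Sensitest broth dilution (e.g. 50 to 0.097 μM final) with DMSO stocks, incubated at 35±2° C. Growth followed by OD 600 nm every 20 min over 16 h; IC50 derived from growth inhibition during logarithmic phase.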
(Broth dilution looks for growth in wells or tubes with falling amounts of substance.)
As for `CNC(=O)COc1cc(C)c2c(c1C)CC(CNCCC1CN(c3ccc4c(n3)NC(=O)CO4)C(=O)O1)C2` (stereo not shown) [Example 112, 2 2-[[4,7-dimethyl-2-[[2-[2-oxo-3-(3-oxo-4H-pyrido[3,2-b][1,4]oxazin-6-yl)-1,3-oxazolidin-5-yl]ethylamino]methyl]-2,3-dihydro-1H-inden-5-yl]oxy]-N-methylacetamide], the pIC50 was 6.52.

As for `Cc1nc(OCCN)cc2c1CC(CNCCC1CN(c3ccc4c(n3)NC(=O)CO4)C(=O)O1)C2` (stereo not shown) [Example 209, 6-[5-[2-[[3-(2-aminoethoxy)-1-methyl-6,7-dihydro-5H-cyclopenta[c]pyridin-6-yl]methylamino]ethyl]-2-oxo-1,3-oxazolidin-3-yl]-4H-pyrido[3,2-b][1,4]oxazin-3-one], the pIC50 is 6.07.

Turning to `N#Cc1c(OC2COC2)ccc2c1CC(CNCCC1CN(c3ccc4c(n3)NC(=O)CO4)C(=O)O1)C2` (stereo not shown) [Example 63, 5-(oxetan-3-yloxy)-2-[[2-[2-oxo-3-(3-oxo-4H-pyrido[3,2-b][1,4]oxazin-6-yl)-1,3-oxazolidin-5-yl]ethylamino]methyl]-2,3-dihydro-1H-indene-4-carbonitrile], the pIC50 is more than 7.01.

Turning to `Cc1nc(OCC2(N)CC2)cc2c1CC(CNCCC1CN(c3ccc4c(n3)NC(=O)CO4)C(=O)O1)C2` (stereo not shown) [Example 175, 6-[5-[2-[[3-[(1-aminocyclopropyl)methoxy]-1-methyl-6,7-dihydro-5H-cyclopenta[c]pyridin-6-yl]methylamino]ethyl]-2-oxo-1,3-oxazolidin-3-yl]-4H-pyrido[3,2-b][1,4]oxazin-3-one], the pIC50 is 6.71.

As to `NC1c2cccc(Cl)c2CC1CCN1CC2(C1)CN(c1ccc3c(n1)NC(=O)CO3)C(=O)O2` (racemic) [Example 195, 6-[6-oxo-2-[2-[rac-1,2-trans-1-amino-4-chloro-2,3-dihydro-1H-inden-2-yl]ethyl]-5-oxa-2,7-diazaspiro[3.4]octan-7-yl]-4H-pyrido[3,2-b][1,4]oxazin-3-one; 2,2,2-trifluoroacetic acid], the pIC50 is more than 7.01.

With `NC1(COc2ncc3c(c2Cl)CC(CNCCC2CN(c4ccc5c(n4)NC(=O)CO5)C(=O)O2)C3)CC1` (stereo not shown) [Example 181, 6-[5-[2-[[3-[(1-aminocyclopropyl)methoxy]-4-chloro-6,7-dihydro-5H-cyclopenta[c]pyridin-6-yl]methylamino]ethyl]-2-oxo-1,3-oxazolidin-3-yl]-4H-pyrido[3,2-b][1,4]oxazin-3-one], the pIC50 is more than 7.01.

Regarding `O=C1COc2ccc(N3CC(CCNCC4Cc5ccccc5C4)OC3=O)nc2N1` (stereo not shown) [Example 87, 6-[5-[2-(2,3-dihydro-1H-inden-2-ylmethylamino)ethyl]-2-oxo-1,3-oxazolidin-3-yl]-4H-pyrido[3,2-b][1,4]oxazin-3-one], the pIC50 is 6.23.

Consider `N#Cc1cccc2c1CC(CN[C@H]1C[C@H](C3CN(c4ccc5c(n4)NC(=O)CO5)C(=O)O3)C1)C2` (stereo partly drawn) [Example 97, 2-[[[trans-3-[2-oxo-3-(3-oxo-4H-pyrido[3,2-b][1,4]oxazin-6-yl)-1,3-oxazolidin-5-yl]cyclobutyl]amino]methyl]-2,3-dihydro-1H-indene-4-carbonitrile], for which the pIC50 is 6.73.

On to `CNC(=O)COc1ccc2c(c1Cl)CC(CNCCC1CN(c3ccc4c(n3)NC(=O)CO4)C(=O)O1)C2` (stereo not shown) [Example 108, 2-[[4-chloro-2-[[2-[2-oxo-3-(3-oxo-4H-pyrido[3,2-b][1,4]oxazin-6-yl)-1,3-oxazolidin-5-yl]ethylamino]methyl]-2,3-dihydro-1H-inden-5-yl]oxy]-N-methylacetamide], for which the pIC50 is more than 7.01.

With `N#Cc1cccc2c1CC(NCC(O)CC1CN(c3ccc4c(n3)NC(=O)CO4)C(=O)O1)C2` (stereo not shown) [Example 238, 2-[[2-Hydroxy-3-[2-oxo-3-(3-oxo-4H-pyrido[3,2-b][1,4]oxazin-6-yl)-1,3-oxazolidin-5-yl]propyl]amino]-2,3-dihydro-1H-indene-4-carbonitrile hydrochloride], the pIC50 is 6.77.

For the compound `CNC(=O)COc1cc(F)c2c(c1F)CC(CNCCC1CN(c3cnc4c(n3)NC(=O)CO4)C(=O)O1)C2` (stereo not shown) [Example 393, 2-[[4,7-difluoro-2-[[2-[2-oxo-3-(3-oxo-4H-pyrazino[2,3-b][1,4]oxazin-6-yl)-1,3-oxazolidin-5-yl]ethylamino]methyl]-2,3-dihydro-1H-inden-5-yl]oxy]-N-methylacetamide], the pIC50 is more than 7.01.

In the case of `NC(=O)COc1cc(F)c2c(c1)CC(CNCCC1CN(c3cnc4c(n3)NC(=O)CO4)C(=O)O1)C2` (stereo not shown) [Example 305, 2-[[7-fluoro-2-[[2-[2-oxo-3-(3-oxo-4H-pyrazino[2,3-b][1,4]oxazin-6-yl)-1,3-oxazolidin-5-yl]ethylamino]methyl]-2,3-dihydro-1H-inden-5-yl]oxy]acetamide], the pIC50 is more than 7.01.

For the compound `NC(CNCC1CN(c2ccc3c(n2)NC(=O)CO3)C(=O)O1)C1Cc2cccc(Cl)c2C1` (stereo not shown) [Example 158, 6-[5-[[[2-amino-2-(4-chloro-2,3-dihydro-1H-inden-2-yl)ethyl]amino]methyl]-2-oxo-1,3-oxazolidin-3-yl]-4H-pyrido[3,2-b][1,4]oxazin-3-one; formic acid], the pIC50 was 6.79.

Consider `NC(=O)COc1cc(F)c2c(c1)CC(CNCC[C@H]1CN(c3cnc4c(n3)NC(=O)CO4)C(=O)O1)C2` (single isomer, unassigned; isomer a) [Example 379], for which the pIC50 is more than 7.01.

In the case of `CN1CCCC1COc1ccc2c(c1C#N)CC(CNCCC1CN(c3ccc4c(n3)NC(=O)CO4)C(=O)O1)C2` (stereo not shown) [Example 52, 5-[(1-methylpyrrolidin-2-yl)methoxy]-2-[[2-[2-oxo-3-(3-oxo-4H-pyrido[3,2-b][1,4]oxazin-6-yl)-1,3-oxazolidin-5-yl]ethylamino]methyl]-2,3-dihydro-1H-indene-4-carbonitrile; formic acid], the pIC50 is more than 7.01.

`NC1(COc2cc(F)c3c(c2F)CC(CN2CCC4(CC2)CN(c2cnc5c(n2)NC(=O)CO5)C(=O)O4)C3)CC1` (stereo not shown) [Example 410, 6-[8-[[5-[(1-aminocyclopropyl)methoxy]-4,7-difluoro-2,3-dihydro-1H-inden-2-yl]methyl]-2-oxo-1-oxa-3,8-diazaspiro[4.5]decan-3-yl]-4H-pyrazino[2,3-b][1,4]oxazin-3-one; formic acid]: the pIC50 is more than 7.01.

As for `N[C@H]1c2cccc(Cl)c2C[C@@H]1CNCC[C@@H]1CN(c2cnc3c(n2)NC(=O)CO3)C(=O)O1` [Example 403, 6-[(5R)-5-[2-[[(1R,2R)-1-amino-4-chloro-2,3-dihydro-1H-inden-2-yl]methylamino]ethyl]-2-oxo-1,3-oxazolidin-3-yl]-4H-pyrazino[2,3-b][1,4]oxazin-3-one], the pIC50 is more than 7.01.

For `NC1c2cccc(F)c2CC1CNCCC1CN(c2ccc3c(n2)NC(=O)CO3)C(=O)O1` (racemic) [Example 163, 6-[5-[2-[(rac-1,2-trans-1-amino-4-fluoro-2,3-dihydro-1H-inden-2-yl)methylamino]ethyl]-2-oxo-1,3-oxazolidin-3-yl]-4H-pyrido[3,2-b][1,4]oxazin-3-one], the pIC50 is 6.88.

`O=C1COc2ncc(-n3cc(CCNCC4Cc5cncc(F)c5C4)oc3=O)nc2N1` (stereo not shown) [Example 372, 6-[5-[2-[(4-fluoro-6,7-dihydro-5H-cyclopenta[e]pyridin-6-yi)methylamino]ethyl]-2-oxo-1,3-oxazol-3-yl]-4H-pyrazino[2,3-b][1,4]oxazin-3-one]: the pIC50 was more than 7.01.

Regarding `O=C1COc2ncc(N3CC(CCNCC4Cc5ncc(F)c(Cl)c5C4)OC3=O)nc2N1` (stereo not shown) [Example 319, 6-[5-[2-[(4-chloro-3-fluoro-6,7-dihydro-5H-cyclopenta[b]pyridin-6-yl)methylamino]ethyl]-2-oxo-1,3-oxazolidin-3-yl]-4H-pyrazino[2,3-b][1,4]oxazin-3-one; formic acid], the negative logarithm of the IC50 (pIC50) is more than 7.01.

Regarding `NC1(COc2ccc3c(c2Cl)CC(CNCCC2CN(c4ccc5c(n4)NC(=O)CO5)C(=O)O2)C3)CC1` (stereo not shown) [Example 117, 6-[5-[2-[[5-[(1-aminocyclopropyl)methoxy]-4-chloro-2,3-dihydro-1H-inden-2-yl]methylamino]ethyl]-2-oxo-1,3-oxazolidin-3-yl]-4H-pyrido[3,2-b][1,4]oxazin-3-one; formic acid], the pIC50 was more than 7.01.

For the compound `NC1c2cccc(F)c2CC1CNCCC1CN(c2ccc3c(n2)NC(=O)CS3)C(=O)O1` (racemic) [Example 165, 5-[2-[(rac-1,2-trans-1-amino-4-fluoro-2,3-dihydro-1H-inden-2-yl)methylamino]ethyl]-3-(3-oxo-4H-pyrido[3,2-b][1,4]thiazin-6-yl)-1,3-oxazolidin-2-one; formic acid], the pIC50 was more than 7.01.

On to `CNC(=O)COc1cc2c(c(Cl)n1)CC(CNCCC1CN(c3ccc4c(n3)NC(=O)CO4)C(=O)O1)C2` (stereo not shown) [Example 66, 2-[[1-chloro-6-[[2-[2-oxo-3-(3-oxo-4H-pyrido[3,2-b][1,4]oxazin-6-yl)oxazolidin-5-yl]ethylamino]methyl]-6,7-dihydro-5H-cyclopenta[c]pyridin-3-yl]oxy]-N-methyl-acetamide], for which the pIC50 was 6.63.

`Cc1cnc(C)c2c1CC(CNCCC1CN(c3ccc4c(n3)NC(=O)CO4)C(=O)O1)C2` (stereo not shown) [Example 98, 6-[5-[2-[(1,4-dimethyl-6,7-dihydro-5H-cyclopenta[c]pyridin-6-yl)methylamino]ethyl]-2-oxo-1,3-oxazolidin-3-yl]-4H-pyrido[3,2-b][1,4]oxazin-3-one]: the pIC50 is more than 7.01.

The same assay, now with this note: strain Escherichia coli ATCC 25922; 10-point broth dilution, optical density at 600 nm over 16 h; read-out: Escherichia coli growth inhibition IC50.
In the case of `N#Cc1cccc2c1CC(CNCCC1OC(=O)N(c3ccc4c(n3)NC(=O)CO4)C1CN)C2` (racemic) [Example 149, 2-[[2-[rac-4,5-trans-4-(aminomethyl)-2-oxo-3-(3-oxo-4H-pyrido[3,2-b][1,4]oxazin-6-yl)-1,3-oxazolidin-5-yl]ethylamino]methyl]-2,3-dihydro-1H-indene-4-carbonitrile; formic acid], the pIC50 is 6.04.

By pIC50 is commonly meant the negative decadic logarithm of the IC50, by convention in mol/L.

For the origin of these results see patent publication US20230167127A1, “COMPOUNDS AND THEIR USE IN THE TREATMENT OF BACTERIAL INFECTION” (Hoffmann-La Roche Inc., priority 2020, published 2023).
